Test results as given in patent US11447482B1, “Imidazopyridine and oxazolopyridine derivatives and analogs thereof, methods of preparation thereof, methods of HIF-2A pathway inhibition, and induction of ferroptosis” (KUDA Therapeutics, Inc., priority 2019, dated 2022).
Values joined by “and” are separate entries in the source; they are usually repeats but may differ in a detail not shown here. Equal values may be shown once. Read-outs that look alike come from different tables or passages of the source.

How the values were obtained:
[1] = test system: HIF-2α transcriptional activity; test: Hypoxia-responsive element-driven luciferase (HRE-Luc) assay; type: cell-based, human; conditions: 786-0 CCRCC cells stably expressing HRE-Luc, 24 hours treatment
Method: (§1) Screens for inhibitory activity of compounds described herein were performed using 786-0 CCRCC cells that stably express HRE-Luc: 5 copies of the hypoxia-responsive element (HRE) fused to the pGL3 luciferase reporter (Promega Corp, Madison Wis.). 786-0 cells are pVHL deficient and thus constitutively express HIF-2α independently of cellular oxygen tension (Maxwell, Wiesener et al. 1999). Since 786-0 cells lack HIF-1α, HRE-driven luciferase activity is primarily HIF-2α driven, and has been previously validated (Koh, Lemos et al. 2011). Cells were maintained at log phase growth in Dulbecco's […] (DMEM) with 10% FBS in a humidified incubator at 37° C. with 5% CO2. For screening assays, cells were seeded at a density of 4,000 cells in 50 μl of complete media/well in quadruplicate wells/point in a 96-well plate. 24 hours later, 50 μl of a 2× concentration of test compound was added to each well. Compounds were diluted from a 5-10 mM stock in DMSO and final concentrations of DMSO in each well in controls and treated wells were kept constant at ≤0.6% DMSO. After 24 hours' treatment, luciferase activity was measured using the Steady-Glo Luciferase assay system (Promega Corp) according to the manufacturer's protocol. Cell viability was measured in quadruplicate parallel wells using resazurin as recommended by the manufacturer (R&D systems, Minneapolis, Minn.). Data for luciferase and resazurin were normalized to DMSO treated controls (defining 100%) and wells containing assay reagent but no cells (defining 0%), and graphed using the log inhibitor versus normalized response option in Prism7 Graphpad software. Representative data determined using Steady-Glo luciferase and resazurin are shown in FIGS. 1A and 1B respectively, with error bars showing standard error of the mean (SEM).

HIF-2α = test: Western blot of treated 786-0 cells: HIF-2α; type: cell-based, human; conditions: 786-0 CCRCC cells, 24 hours
Method: (§2) Western blots were performed to determine the effects of the compounds on levels of HIF-2α and other relevant proteins. 786-0 (pVHL deficient clear cell kidney cancer cells) were purchased from ATCC were plated at 1×10E5 cells/well in 2 ml DMEM with 10% FBS/well in 6-well tissue culture plates. Cells were allowed to adhere overnight in a humidified incubator at 37° C. with 5% CO2, after which the appropriate concentrations of compounds in DMSO were added. DMSO concentrations were kept constant in all wells. After 24 hour's exposure to the compounds, cells were lysed and subjected to western blotting according to standard protocols (Polek, Talpaz et al. 2003). Antibodies for HIF-2α and Glyceraldehyde 3-Phosphate Dehydrogenase (GAPDH) were purchased from Cell Signaling Technology (Danvers, Mass.), whereas antibodies to iron responsive element binding protein 2 (IRP2) and Glutathione Peroxidase 4 (GPX4) were from Santa Cruz Biotechnology (Dallas, Tex.) and R&D Systems, Inc (Minneapolis, Minn.). Representative data in FIG. 3 show a dose-dependent effect of compounds in decreasing HIF-2α. Compounds also impact cellular iron sensing given by increased IRP2, which taken together indicate that cells sense decreased amounts of available iron. Representative data shown in FIG. 5 Part C show a dose dependent effect of the compounds on GPX4, which may indicate decreased resistance to ferroptosis.

IRP2 = test: Western blot of treated 786-0 cells: IRP2; type: cell-based, human; conditions: 786-0 CCRCC cells, 24 hours
Method: as §2

recombinant ISCA2 = molecular target: T1, recombinant ISCA2 (Homo sapiens, UniProt Q86U28); test: Thermal shift assay (SYPRO Orange); type: binding
T1 construct: His6 (N); made in house
T1 sequence (Q86U28 9-154): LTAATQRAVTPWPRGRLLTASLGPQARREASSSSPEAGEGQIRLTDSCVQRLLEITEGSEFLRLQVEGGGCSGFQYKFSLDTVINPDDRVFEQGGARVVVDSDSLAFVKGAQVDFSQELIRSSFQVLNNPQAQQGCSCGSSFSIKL
Method: Thermal shift assays were performed by monitoring the change in protein melting temperature (Tm) in the absence or presence of test compounds, using the hydrophobic protein binding dye, SYPRO Orange (S6650, Thermo Fisher Scientific, Waltham, Mass.), measured using the LightCycler 480 (Roche Life Sciences, Indianapolis, Ind.) according to the manufacturer's protocol. Recombinant ISCA2 was produced by expressing amino acid residues 9-154 of ISCA2 (ISCA2 lacking its mitochondrial localization sequence) in the pET28 vector containing an N-terminal His6 tag in Rosetta (DE3) competent cells (Novagen, Millipore Sigma). ISCA2 production was induced by treating ISCA2 transformed log phase cells with 0.25 mM IPTG for 4 hours at 18° C. ISCA2 was purified using Ni^2+ affinity purification according to standard protocols and eluted in 50 mM Tris-Cl pH7.4, 150 mM NaCl, 5 mM DTT. Thermal shift assays were performed in 384-well plates using 1 μl of a 10× concentration of SYPRO Orange, 8 μl of ISCA2 (4 μg protein) and 1 μl of 1-2 mM stock of test compound per well. The LightCycler was used according to the following setup: LightCycler 480 Instrument Temperature Setup: First target of 20° C., with a Hold of 15 seconds; second target of 95° C., with Acquisition Mode of Continuous, and 10 acquisitions per degree C.; and third target of 20° C., with a Hold of 15 seconds. Tms were determined using Roche Protein Melting Analysis Software. Representative data are shown in FIGS. 7 and 8 using KD001 at 200 μM final concentration and KD025 at 100 μM final concentration respectively. Part A in these figures show the changes in fluorescence with increasing temperature in control (grey traces), or treated (black traces) wells. Part B show the ratio of changes in fluorescence (dF) with changes in temperature (dT), given by dF/dT, the peak of which indicates the melting temperature of ISCA2 under these assay conditions. In these examples, for KD001 in FIG. 7, the average Tm readings for control wells was 53.21±0.36° C. (replicate readings were 53.92, 52.83, 52.90), whereas Tm readings for KD001-treated wells were 55.63±0.26° C. (replicate readings were 55.10, 55.92, 55.96). Thus, treatment with KD001 results in a change in melting temperature of ISCA2 (dTm) of 2.41±0.44° C., with a Student's t-test p-value of 0.005. For KD025 in FIG. 8, the average Tm readings for control wells was 55.02±0.2° C. (replicate readings were 55.42, 54.83, 54.81), whereas Tm readings for KD025-treated wells were 56.3±0.02° C. (replicate readings were 56.33, 56.3, 56.27). Thus, treatment with KD025 results in a change in melting temperature of ISCA2 (dTm) of […], with a Student's t-test p-value of 0.003.

786-0 CCRCC cells [2] = test: Resazurin cell viability assay, with or without deferoxamine; type: cell-based, human; conditions: 24 hours; for ratio of resazurin IC50 to HRE-Luc IC50: 786-0 HRE-Luc cells, data of FIG. 1; for IC50: 786-0 CCRCC cells, resazurin
Method: as §1
In view of the increased cellular iron concentrations induced by the compounds described herein, the involvement of iron in mediating cell death was determined. Cell viability assays were performed as described in Example 2 using resazurin as a cell viability readout, and performed in the absence or presence of 100 μM of the iron chelator, deferoxamine (D9533, MilliporeSigma, St Louis, Mo.). […] The data support an iron-dependent mechanism of cell death, or feroptosis.

[3] = test system: CMV-driven luciferase in 786-0 cells; test: CMV-Luciferase counter-screen (constitutive luciferase); type: cell-based, human; conditions: 786-0 CMV versus 786-0 HRE cells, data of FIG. 2
Method: Since it is possible that non-specific inhibitors of luciferase activity and/or translation may produce false-positives in our HRE-luciferase screens, counter-screens were performed using 786-0 cells that stably express a constitutively expressed luciferase construct. 786-0 cells stably expressing CMV-driven luciferase were generated using the pGL4.50 (luc2/CMV/Hygro) vector (Promega Corp) according to the manufacturers' protocol. 786-0 HRE and 786-0 CMV were seeded in 96-well plates and were screened according to the HRE-Luc assay protocol described in Example 2. Luciferase activity following compound treatment was determined using Steady Glo luciferase. Representative data are shown in FIG. 2, wherein A, B and C refer to treatments with KD02, KD007 and KD021 respectively. Filled circles indicate results from 786-0 HRE cells, whereas empty squares indicate results from 786-0 CMV cells.

786-0 CCRCC cells [4] = test: ICP-MS of cellular iron, zinc and copper; type: cell-based, human; conditions: 786-0 cells, 24 hours, 1.5 μM KD002 or KD021, 2.5 μM KD025HCl, versus DMSO
Method: These studies were performed to determine the content of iron and other transition metals in cells after exposure the compounds described herein. 786-0 cells were seeded at 1.5 million cells/flask in T75 cm^2 flasks in DMEM+10% FBS, and allowed to adhere overnight. Cells were then treated with indicated concentrations of compounds in DMSO or DMSO alone (vehicle) for a further 24 hours, after which cells were detached by trypsinization, counted, washed twice in PBS and pelleted. Experiments were performed using three replicate T75 cm^2 flasks per condition. A 5:1 mixture of nitric acid (OPTIMA Grade, 70%, Fisher Scientific) and ultrapure hydrogen peroxide (ULTREX II, 30%, Fisher Scientific) was added to cell pellets. This mixture was allowed to digest overnight, heated until dry, and resuspended in 2% nitric acid for analysis using an Agilent 7900 ICP-MS (Agilent Technologies, Santa Clara, Calif.). Calibration standard solutions for determination of Fe were prepared from Agilent multi-element calibration standard-2A. An Agilent Environmental Calibration Standard was used as an independent control. PBS-only control digestions were used to measure background. Metal readings were normalized to cell number. Data obtained from these studies for three replicate readings (with SEM) are shown in FIG. 4, which show an increase in cellular iron (Fe) content after treatment with indicated compounds.

COc1cccc2sc(Nc3nnc(-c4ccc(F)cc4)o3)nc12 [KD001, 5-(4-fluorophenyl)-N-(4-methoxybenzo[d]thiazol-2-yl)-1,3,4-oxadiazol-2-amine]
IC50 ([1]; Homo sapiens): 3210 nM
HIF-2α protein relative to GAPDH (western blot) (HIF-2α): decreases
IRP2 protein relative to GAPDH (western blot) (IRP2): increases
Tm of ISCA2 in treated wells, replicate readings (recombinant ISCA2; 200 μM compound): 55.10 °C and 55.92 °C and 55.96 °C
change in melting temperature of ISCA2 (dTm) (recombinant ISCA2; 200 μM compound, p-value 0.005): 2.41±0.44 °C
ΔTm at 200 µM (recombinant ISCA2; 200 μM compound, p-value 0.005, read-out: change in melting temperature of ISCA2 (dTm)): 2.41 ± 0.44 °C
Tm of ISCA2 in treated wells (average) (recombinant ISCA2; 200 μM compound, control wells 53.21±0.36): 55.63±0.26 °C

COc1nccc2[nH]c(Nc3nnc(-c4ccc(F)cc4)o3)nc12 [KD002, 5-(4-Fluorophenyl)-N-(4-methoxy-1H-imidazo[4,5-c]pyridin-2-yl)-1,3,4-oxadiazol-2-amine]
IC50 ([1]; Homo sapiens): 1560 nM
ratio of resazurin IC50 to HRE-Luc IC50 (786-0 CCRCC cells [2]): 39.05
ratio of CMV-Luc IC50 to HRE-Luc IC50 [3]: 7.9
HIF-2α protein relative to GAPDH (western blot) (HIF-2α): decreases
IRP2 protein relative to GAPDH (western blot) (IRP2): increases
cellular copper (Cu) content (ICP-MS) (786-0 CCRCC cells [4]): increases
cellular iron (Fe) content (ICP-MS) (786-0 CCRCC cells [4]): increases
cellular zinc (Zn) content (ICP-MS) (786-0 CCRCC cells [4]): increases

Fc1ccc(-c2nnc(Nc3nc4ncccc4o3)o2)cc1 [KD007, N-(5-(4-Fluorophenyl)-1,3,4-oxadiazol-2-yl)oxazolo[4,5-b]pyridin-2-amine]
IC50 ([1]; Homo sapiens): 3160 nM
ratio of resazurin IC50 to HRE-Luc IC50 (786-0 CCRCC cells [2]): 3.2
ratio of CMV-Luc IC50 to HRE-Luc IC50 [3]: 4.75 and 2.6

COc1ccc(-c2nnc(Nc3nc4c(OC)nccc4[nH]3)o2)cc1 [KD021, N-(4-methoxy-1H-imidazo[4,5-c]75yridine-2-yl)-5-(4-methoxyphenyl)-1,3,4-oxadiazol-2-amine]
IC50 [1]: 1400 nM
IC50 (786-0 CCRCC cells [2]; with 100 μM deferoxamine (DFO), read-out: cell viability IC50 in the presence of DFO): 83.6 µM
IC50 (786-0 CCRCC cells [2]; without DFO, read-out: cell viability IC50): 11.4 µM
ratio of resazurin IC50 to HRE-Luc IC50 (786-0 CCRCC cells [2]): 2.75
cellular copper (Cu) content (ICP-MS) (786-0 CCRCC cells [4]): increases
cellular iron (Fe) content (ICP-MS) (786-0 CCRCC cells [4]): increases
cellular zinc (Zn) content (ICP-MS) (786-0 CCRCC cells [4]): increases

COc1ccc(-c2nnc(Nc3nc4c(OC)nccc4[nH]3)o2)cc1OC [KD025, N-(4-Methoxy-1H-imidazo[4,5-c]pyridin-2-yl)-5-(3,4-dimethoxyphenyl)-1,3,4-oxadiazol-2-amine]
IC50 ([1]; Homo sapiens): 1130 nM
Tm of ISCA2 in treated wells, replicate readings (recombinant ISCA2; 100 μM compound): 56.33 °C and 56.3 °C and 56.27 °C
change in melting temperature of ISCA2 (dTm) (recombinant ISCA2; 100 μM compound, p-value 0.003): 1.21±0.20 °C
ΔTm at 100 µM (recombinant ISCA2; 100 μM compound, p-value 0.003, read-out: change in melting temperature of ISCA2 (dTm)): 1.21 ± 0.2 °C
Tm of ISCA2 in treated wells (average) (recombinant ISCA2; 100 μM compound, control wells 55.02±0.2): 56.3±0.02 °C
